Source: patent US5387670A, “Antibiotic, deoxymulundocandin, a process for its production and its use as medicament” (Hoechst Aktiengesellschaft, priority 1990, dated 1995)
Numbered stars: 1 amine (or outer) side, 2 acyl side, 3 side chain; on linkers, the order of the positions; unused ones are H or OH. Bridge positions count the residues as written; N and C are the ends. Square brackets hold non-standard residues; d marks the D form. Peptide text beside a SMILES is read from it. * marks the point of attachment. Orn(4R-OH,5R-OH) = O=C([C@H](C[C@@H](O)[C@@H](O)N[*:3])N[*:1])[*:2]; Pro(3S-OH,4S-Me) = C[C@H]1CN[C@H](C(=O)O)[C@H]1O; hTyr(3R-OH) = N[C@H](C(=O)O)[C@H](O)Cc1ccc(O)cc1; Hyp = O=C(O)[C@@H]1C[C@@H](O)CN1; X1 = CCC(C)CCCCCCCCCCC(=O)*

Key:
[1] = system: Saccharomycis cerevisiae; assay: Minimum inhibitory concentration; format: cell-based
[2] = system: Candida albicans; assay: Minimum inhibitory concentration; format: cell-based
[3] = system: Botrytis cinerea 57; assay: Minimum inhibitory concentration; format: cell-based
[4] = system: Botrytis cinerea 211; assay: Minimum inhibitory concentration; format: cell-based
[5] = system: Botrytis cinerea 212; assay: Minimum inhibitory concentration; format: cell-based
[6] = system: Cercospora beticola 71; assay: Minimum inhibitory concentration; format: cell-based
[7] = system: Trichophyton mentagrophytes; assay: Minimum inhibitory concentration; format: cell-based
[8] = system: Microsporum gypseum; assay: Minimum inhibitory concentration; format: cell-based
[9] = system: Cladosporium species; assay: Minimum inhibitory concentration; format: cell-based
[10] = Solubility (physicochemical properties)
Description: Physicochemical Properties of the New Antibiotic Deoxymulundocandin

[11] = system: Microsporum canis; assay: Minimum inhibitory concentration; format: cell-based
[12] = system: Penicillium italicum; assay: Minimum inhibitory concentration; format: cell-based
[13] = system: Aspergillus niger; assay: Minimum inhibitory concentration; format: cell-based
[14] = system: Botrytis cinerea 47; assay: Minimum inhibitory concentration; format: cell-based

## CCC(C)CCCCCCCCCCC(=O)N[C@H]1C[C@@H](O)[C@@H](O)NC(=O)[C@@H]2[C@@H](O)[C@@H](C)CN2C(=O)[C@H](CO)NC(=O)[C@H]([C@H](O)Cc2ccc(O)cc2)NC(=O)[C@@H]2C[C@@H](O)CN2C(=O)[C@H]([C@@H](C)O)NC1=O (stereo partly drawn) [Deoxymulundocandin] (X1-[Orn(4R-OH,5R-OH)]T[Hyp][hTyr(3R-OH)]S[Pro(3S-OH,4S-Me)]; lactam 1-C)
[1]
  Minimum Inhibitory Concentration: 3.1 micrograms per milliliter
[2]
  Minimum Inhibitory Concentration: 1.5 micrograms per milliliter
[3]
  Minimum Inhibitory Concentration: 50 micrograms per milliliter
[4]
  Minimum Inhibitory Concentration: 25 micrograms per milliliter
[5]
  Minimum Inhibitory Concentration: 25 micrograms per milliliter
[6]
  Minimum Inhibitory Concentration: 6.25 micrograms per milliliter
[7]
  Minimum Inhibitory Concentration: < 0.18 micrograms per milliliter
[8]
  Minimum Inhibitory Concentration: 0.18 micrograms per milliliter
[9]
  Minimum Inhibitory Concentration: 0.75 micrograms per milliliter
[10]; in methanol, dimethyl formamide, dimethyl sulfoxide
  Solubility: Soluble
[10]; in water, acetone, acetonitrile, ethyl acetate, carbon tetrachloride, chloroform, benzene, petroleum ether
  Solubility: sparingly soluble
[11]
  Minimum Inhibitory Concentration: < 0.18 micrograms per milliliter
[12]
  Minimum Inhibitory Concentration: 25 micrograms per milliliter
[13]
  Minimum Inhibitory Concentration: 3.1 micrograms per milliliter
[14]
  Minimum Inhibitory Concentration: 6.25 micrograms per milliliter
